In the assay the target is T1, PLC-γ1 (Homo sapiens, UniProt P19174).
T1 construct: addition of 4 ng of purified full-length wild-type PLC-γ1; made in house; host or cells: insect cells
T1 sequence (P19174 1-1290): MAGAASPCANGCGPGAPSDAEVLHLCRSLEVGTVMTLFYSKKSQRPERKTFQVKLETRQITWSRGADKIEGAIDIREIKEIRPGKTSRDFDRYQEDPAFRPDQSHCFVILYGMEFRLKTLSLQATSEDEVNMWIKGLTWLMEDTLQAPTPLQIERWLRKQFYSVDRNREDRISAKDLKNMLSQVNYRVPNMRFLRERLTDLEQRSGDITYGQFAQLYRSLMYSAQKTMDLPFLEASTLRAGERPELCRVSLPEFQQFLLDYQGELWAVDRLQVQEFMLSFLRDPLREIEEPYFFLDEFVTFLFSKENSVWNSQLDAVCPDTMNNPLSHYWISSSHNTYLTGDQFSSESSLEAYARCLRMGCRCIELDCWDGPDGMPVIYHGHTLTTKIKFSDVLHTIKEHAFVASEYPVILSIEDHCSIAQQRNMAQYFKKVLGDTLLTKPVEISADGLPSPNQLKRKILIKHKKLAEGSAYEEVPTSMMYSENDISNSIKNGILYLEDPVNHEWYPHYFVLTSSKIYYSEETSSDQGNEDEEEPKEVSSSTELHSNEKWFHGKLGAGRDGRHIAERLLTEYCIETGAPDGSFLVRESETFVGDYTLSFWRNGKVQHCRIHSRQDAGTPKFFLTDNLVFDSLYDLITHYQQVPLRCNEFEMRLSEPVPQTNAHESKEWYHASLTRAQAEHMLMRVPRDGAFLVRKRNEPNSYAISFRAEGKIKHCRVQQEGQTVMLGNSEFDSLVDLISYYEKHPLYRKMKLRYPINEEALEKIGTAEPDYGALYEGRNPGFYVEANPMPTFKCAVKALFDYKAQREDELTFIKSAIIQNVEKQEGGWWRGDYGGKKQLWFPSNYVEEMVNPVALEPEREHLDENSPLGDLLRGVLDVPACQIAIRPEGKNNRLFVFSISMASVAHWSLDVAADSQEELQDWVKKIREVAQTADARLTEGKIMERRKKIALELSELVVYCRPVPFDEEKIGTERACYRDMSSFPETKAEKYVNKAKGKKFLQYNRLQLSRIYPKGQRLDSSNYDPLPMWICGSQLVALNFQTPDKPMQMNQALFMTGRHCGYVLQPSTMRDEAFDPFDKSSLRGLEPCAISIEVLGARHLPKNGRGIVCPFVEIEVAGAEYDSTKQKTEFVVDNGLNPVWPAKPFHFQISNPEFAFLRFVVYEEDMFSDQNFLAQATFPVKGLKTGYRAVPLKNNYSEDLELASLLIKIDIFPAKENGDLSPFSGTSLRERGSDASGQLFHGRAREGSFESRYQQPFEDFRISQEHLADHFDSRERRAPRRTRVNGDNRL
Kind of assay: Kinetic studies with PLC-γ1. It counts as biochemical. The following applies: endogenous substrate PIP2, [3H]PtdIns-(4,5)P2, liquid scintillation counting, 30° C. On the procedure:
For comparison, the endogenous substrate, PIP2, was also applied in the enzymatic reaction under similar conditions.
The assays were started by the addition of 4 ng of purified full-length wild-type PLC-γ1. The reaction mixtures were then incubated at 30° C., and fluorescence was measured continuously as described above. For kinetic studies with the endogenous PIP2, a mixture of PtdIns-(4,5)P2 (300 μM, Avanti Polar Lipids) and ˜10,000 cpm of [^3H]PtdIns-(4,5)P2 was dried under a stream of nitrogen and resuspended in 0.5% cholate. The resulting lipid stock was diluted to obtain final assay conditions with either 280, 160, 80, 24, or 8 μM PtdIns(4,5)P2 in the same buffer as described above in a final volume of 60 μL. Assays were initiated by the addition of 17 ng of purified full-length wild-type PLC-γ1. After incubation at 30° C. at time intervals between 0-8 min, reactions were stopped by the addition of 200 μL of 10% (v/v) trichloroacetic acid (TCA) and 100 μL of 10 mg/mL BSA to precipitate uncleaved lipids and protein. Centrifugation of the reaction mixture isolated soluble [^3H]Ins(1,4,5)P3, which was quantified using liquid scintillation counting.

For “phosphatidylinositol 4,5-bisphosphate [PIP2]”, the Km came to 28 ± 2.6 µM and the maximal velocity (Vmax) was 2.7 ± 0.07 pmol/min/ng.
